According to patent US20250243488A1, “METHODS OF MODULATING PROGRANULIN EXPRESSION USING ANTISENSE OLIGONUCLEOTIDES TARGETING REGULATORY RNAS” (Camp4 Therapeutics Corporation, priority 2022, published 2025):
Oligonucleotides are written 5' to 3', each unit as a sugar letter and its base; * is a phosphorothioate linkage, no mark a phosphodiester; rarer units and linkages stand in square brackets, end groups in braces. Plain capitals give the bases only. e = 2'-O-(2-methoxyethyl) (MOE); l = locked nucleic acid (LNA); [5mC] = 5-methylcytosine; d = 2'-deoxy (DNA)

Test system: GRN mRNA
Assay: GRN mRNA qPCR in SK-N-AS cells transfected with ASOs
Type: cell-based, human
Details: SK-N-AS; for 120 nM FC (GRN mRNA) / hGRN mRNA FC: 120 nM
Method: The best ASOs based on increased GRN mRNA fold-change were selected for further characterization in dose titration studies. Briefly, human neuroblastoma SK-N-AS cells were transfected with 20 to 160 nM of ASOs CO-3423, CO-3431, CO-3463, and CO-3503. A steric non-targeting control ASO (sNTC) was used as a control. Cells were collected for mRNA analysis after 48 hours and GRN mRNA quantified by qPCR. Housekeeping genes for normalization were GAPDH and PPIA, and mRNA fold change (FC) was normalized to sNTC.
36 additional ASOs were designed with different modifications and base walking around selected ASOs. The effect of increasing doses of these ASOs was assessed in the human neuroblastoma cell line SK-N-AS following transfection. Relative GRN mRNA levels in SK-N-AS cells after treatment was assessed 48-hours post-transfection, and data from exemplary ASOs is shown in FIGS. 5A and 5B.
Additional chemical modifications, including LNA, modifications were made to CO-3423. SK-N-AS cells were transfected with increasing concentrations of the LNA/PS modified ASOs and GRN mRNA quantified by qPCR. ASOs including different LNA modifications of CO-3423 had similar efficacy (i.e, similar increased GRN mRNA expression). GRN mRNA was normalized to the average fold-change of cells treated with two steric non-targeting control ASOs (CO-3772 and CO-1589 (sNTC1)).
The effect of ASO length on GRN gene expression modulation was also investigated. SK-N-AS cells were transfected with increasing concentrations of the longer ASOs and GRN mRNA quantified by qPCR. Increasing the length of CO-3423 increased the potency of the ASO, as shown in Table 4. mRNA was normalized to the average fold change of cells treated with two steric non-targeting control ASOs (CO-3772 and CO-1589 (sNTC1)).
To determine whether variations in the PO/PS internucleotide bond linkages impacted the ability of CO-3423 and CO-3431 to modulate gene expression, several modified ASOs based on these parent ASOs were prepared. SK-N-AS cells were transfected with increasing concentrations of the mixed PO/PS bond ASOs described in Tables 5 and 6, and GRN mRNA quantified by qPCR.
GRN mRNA fold-change after treatment with mixed PO/PS bond versions of CO-3423 is shown in Table 5. mRNA was normalized to the average fold change of cells treated with steric nontargeting controls (CO-3772, CO-1589 (sNTC1), and CO-1929 (sNTC3)).
GRN mRNA fold-change after treatment with mixed PO/PS bond versions of CO-3431 is shown in Table 6. mRNA was normalized as described above.
To further assess the effect of additional modifications on the ability of CO-3423 parent ASO to modulate GRN gene expression, additional LNA tiling and PO bond modifications were incorporated to CO-3423. SK-N-AS cells were transfected with increasing concentrations of the modified ASOs and GRN mRNA quantified by qPCR. CO-3423 was used for comparison. GRN mRNA was normalized to the average fold-change of cells treated with a steric non-targeting control ASO, CO-1589 (sNTC1).
To further assess the effect of modifications on the ability of CO-3463 parent ASO to modulate GRN gene expression, ASOs based on this ASOS incorporating additional LNA modifications were prepared and compared to […]. SK-N-AS cells were transfected with increasing concentrations of the ASOs and GRN mRNA quantified by qPCR. GRN mRNA was normalized to the average fold-change of cells treated with a steric non-targeting control ASO, CO-1589 (sNTC1).
68 additional ASOs were designed to target intergenic enhancers (eRNA). 48 hours post-transfection, the cells were collected for GRN mRNA analysis using qPCR. CO-1589, a steric nontargeting control ASO, was used as a control. GRN mRNA was normalized to cells treated with CO-1589.
The best hits from these ASOs were tested in a dose escalation study. Cells were incubated for 48 hours. Subsequently, the cells were collected for mRNA quantification via RT-qPCR. […]

[1] = Table 12, normalized to CO-1589
[2] = Table 4, normalized to CO-3772 and CO-1589 (sNTC1)
[3] = Table 9, 48 hours post-transfection, normalized to CO-1589
[4] = Table 10, 48 hours, normalized to CO-1589
[5] = Table 11, 48 hours, normalized to CO-1589
[6] = Table 13, normalized to CO-1589
[7] = Table 3, normalized to CO-3772 and CO-1589 (sNTC1)

Row | Substance | 30 nM FC (GRN mRNA) [1] | 60 nM FC (GRN mRNA) [1] | 120 nM FC (GRN mRNA) [1] | hGRN mRNA FC [3] | other results
1 | CO-6402: ASO based on parent ASO CO-3462 (antisense eG*eT*eA*eG*eG*lA*dG*dA*lA*dT*d[5mC]*dG*d[5mC]*lT*dT*dT*lG*eG*eG*eA*eG*e[5mC]) | 1.5 FC | 1.6 FC | 1.8 FC |  | 
2 | CO-4124: GRN paRNA-targeting ASO; longer ASO related to CO-3423 (antisense eG*eA*e[5mC]*eT*eT*eG*eG*eG*eA*eG*eT*eG*eG*eT*eG*eA*e[5mC]*eT*eG*eA) |  |  |  | 1.3 FC | 30 nM FC (GRN mRNA) [2]: 1.2 FC; 60 nM FC (GRN mRNA) [2]: 1.7 FC; 120 nM FC (GRN mRNA) [2]: 1.7 FC; 3.75 nM FC (GRN mRNA) (Table 10, 3.75 nM, 48 hours, normalized to CO-1589): 1.0 FC; 7.5 nM FC (GRN mRNA) (Table 10, 7.5 nM, 48 hours, normalized to CO-1589): 1.0 FC; 15 nM FC (GRN mRNA) (Table 10, 15 nM, 48 hours, normalized to CO-1589): 1.0 FC; 30 nM FC (GRN mRNA) [4]: 1.2 FC; 60 nM FC (GRN mRNA) [4]: 1.4 FC; 120 nM FC (GRN mRNA) [4]: 1.9 FC
3 | CO-6517: ASO based on parent ASO CO-3462 (antisense eT*eA*eGeGeAeGeAeAeTe[5mC]eGe[5mC]eTeTeTeGeG*eG*eA*eG) | 1.2 FC | 2.3 FC | 2.0 FC |  | 
4 | CO-4638: ASO designed to target intergenic enhancers (eRNA) (antisense eT*eT*eG*eA*eT*eA*eG*eA*eT*eG*eG*e[5mC]*eA*eG*eG*eT*e[5mC]*eA*eG*eG) |  |  |  | 1.0 FC | 
5 | CO-6400: ASO based on parent ASO CO-3462 (antisense eG*eT*eA*eG*eG*eA*eG*eA*eA*eT*e[5mC]*eG*e[5mC]*eT*eT*eT*eG*eG*eG*eA*eG*e[5mC]) | 1.1 FC | 1.3 FC | 1.3 FC |  | 
6 | CO-6512: ASO based on parent ASO CO-3462 (antisense eT*eA*eGeGeAeGeA*eA*eT*e[5mC]*eG*e[5mC]eT*eT*eT*eG*eG*eG*eA*eG) | 1.3 FC | 1.8 FC | 1.3 FC |  | 
7 | CO-4624: ASO designed to target intergenic enhancers (eRNA) (antisense eG*eT*e[5mC]*eA*eG*eA*e[5mC]*eT*eG*eT*e[5mC]*e[5mC]*eT*eA*e[5mC]*eA*e[5mC]*e[5mC]*eT*eT) |  |  |  | 1.3 FC | 
8 | CO-6455: ASO designed to target an intragenic enhancer RNA (eRNA) (e[5mC]*eT*e[5mC]*eA*eT*eT*eG*eA*e[5mC]*eT*e[5mC]*e[5mC]*eA*eA*eG*eT*eG*eT*eA*eG) |  |  |  |  | hGRN mRNA FC [5]: 0.9 FC
9 | CO-6390: ASO based on parent ASO CO-3462 (antisense eT*eA*eG*eG*lA*dG*dA*dA*lT*d[5mC]*dG*d[5mC]*lT*dT*dT*eG*lG*eG*eA*eG) | 1.3 FC | 1.3 FC | 1.5 FC |  | 
10 | CO-4618: ASO designed to target intergenic enhancers (eRNA) (antisense eA*eT*eA*eG*eG*eT*e[5mC]*eA*eG*eG*eG*eA*eA*eT*eG*e[5mC]*e[5mC]*eG*e[5mC]*e[5mC]) |  |  |  | 1.3 FC | 
11 | CO-4645: ASO designed to target intergenic enhancers (eRNA) (antisense eA*e[5mC]*eA*eG*e[5mC]*eA*eG*eA*eA*e[5mC]*eA*eT*e[5mC]*e[5mC]*e[5mC]*eG*eT*eG*eA*eA) |  |  |  | 1.4 FC | 
12 | CO-4650: ASO designed to target intergenic enhancers (eRNA) (antisense eT*eA*eA*eG*eA*e[5mC]*eT*eT*eT*e[5mC]*e[5mC]*eA*eG*e[5mC]*eA*eT*eG*eT*e[5mC]*e[5mC]) |  |  |  | 1.1 FC | 
13 | CO-6523: ASO based on parent ASO CO-3462 (antisense eT*eA*eG*eG*eA*eG*eA*eA*eT*e[5mC]*eG*e[5mC]*eT*eTeTeGeGeG*eA*eG) | 2.9 FC | 1.4 FC | 1.3 FC |  | 
14 | CO-6416: ASO based on parent ASOs CO-4363 and CO-4364 (eG*eG*lA*e[5mC]*eT*lT*eG*eG*lG*eA*eG*lT*eG*eG*lT*eG*eA*l[5mC]*eT*eG*eA) |  |  |  |  | 30 nM FC (GRN mRNA) [6]: 1.4 FC; 60 nM FC (GRN mRNA) [6]: 1.6 FC; 120 nM FC (GRN mRNA) [6]: 2.2 FC
15 | CO-4358: LNA/PS modified ASO based on CO-3423 (antisense eG*eG*eA*l[5mC]*eT*eT*eG*lG*eG*eA*eG*lT*eG*eG*eT*lG*eA*e[5mC]*eT*eG) |  |  |  |  | 30 nM FC (GRN mRNA) [7]: 1.5 FC; 60 nM FC (GRN mRNA) [7]: 1.9 FC; 120 nM FC (GRN mRNA) [7]: 2.0 FC
16 | CO-6430: ASO designed to target an intragenic enhancer RNA (eRNA) (eT*eG*e[5mC]*eG*e[5mC]*eA*e[5mC]*eA*e[5mC]*eA*eG*eG*eT*eA*e[5mC]*e[5mC]*eA*eG*eA*eG) |  |  |  |  | hGRN mRNA FC [5]: 1.0 FC
17 | CO-6384: ASO based on parent ASO CO-3462 (antisense eG*eT*eA*eG*eG*eA*eG*eA*eA*eT*e[5mC]*eG*e[5mC]*eT*eT*eT*eG*eG*eG*eA) | 1.0 FC | 1.0 FC | 1.5 FC |  | 
18 | CO-4608: ASO designed to target intergenic enhancers (eRNA) (antisense eT*eA*eG*eA*e[5mC]*eA*e[5mC]*eT*eT*e[5mC]*e[5mC]*eA*eG*e[5mC]*e[5mC]*e[5mC]*eA*e[5mC]*e[5mC]*eT) |  |  |  | 1.1 FC | 
